# Target: FAS (Homo sapiens, UniProt P49327)
# Assay: FAS assay (Assay #1 residual NADPH detection or Assay #2 CoA detection with thio-reactive coumarin dye)
# Type: biochemical
# Details: tested generally according to the assays described (Assay #1 or #2); in at least one experimental run; read-out: pIC50 value (inhibition of FAS) (converted)
# Experimental: FAS activity was measured through one of the two following assays.
# Inhibition of FAS activity can be measured based on the detection of residual NADPH substrate after the FAS assay is quenched. This assay is run as a 10 μL endpoint assay in 384-well format, where the reaction contains 20 μM malonyl-CoA, 2 μM acetyl-CoA, 30 μM NADPH and 40 nM FAS in 50 mM sodium phosphate, pH 7.0. The assay is run by sequentially dispensing 5 μl of a malonyl-CoA solution, then enzyme solution (containing the acetyl-CoA, and NADPH) into a black, low volume assay plate (Greiner 784076) pre-dispensed with […] compound solutions in DMSO. The reaction is incubated at ambient temperature for 60 minutes, then quenched with 5 μL of a developing solution composed of 90 μM resazurin, 0.3 IU/ml diaphorase in 50 mM sodium phosphate, pH 7.0. The developed reaction is read on a Molecular Devices Analyst or Acquest (or equivalent) plate reader using a 530 nm excitation wavelength filter, a 580 nm emission filter, and 561 nm dichroic filter. The test compounds are prepared in neat DMSO at a concentration of 10 mM. For inhibition curves, compounds are diluted using a three-fold serial dilution and tested at 11 concentrations (e.g. 25 μM-0.42 nM). Curves are analysed using ActivityBase and XLfit, and results are expressed as pIC50 values.
# Inhibition of FAS can also be quantified based on the detection of the CoA products with a thio-reactive coumarin dye. This assay is run as a 10 μL endpoint assay in 384-well format, where the reaction contains 20 μM malonyl-CoA, 20 μM acetyl-CoA, 40 μM NADPH and 2 nM FAS in 50 mM sodium phosphate, pH 7.0, and 0.04% Tween-20. The assay is run by adding 5 μL enzyme solution to a black, low volume assay plate (Greiner 784076) pre-dispensed with 100 nl compound solutions in DMSO. After 30 minutes, […] substrate is added, and the reaction incubated at ambient temperature for an additional 60 minutes. The reaction is then quenched with 10 μL of 6M guanidine-HCl containing 50 μM CPM (7-diethylamino-3-(4′-maleimidylphenyl)-4-methylcoumarin (CPM; thio-reactive dye), and incubated for 30 minutes. The plate is read on an Envision (PerkinElmer) or equivalent plate reader using a 380 nm excitation wavelength filter, and a 486 nm emission filter. Data fitting and compound preparations are done as described above.
# Chain of FAS (P49327 whole entry): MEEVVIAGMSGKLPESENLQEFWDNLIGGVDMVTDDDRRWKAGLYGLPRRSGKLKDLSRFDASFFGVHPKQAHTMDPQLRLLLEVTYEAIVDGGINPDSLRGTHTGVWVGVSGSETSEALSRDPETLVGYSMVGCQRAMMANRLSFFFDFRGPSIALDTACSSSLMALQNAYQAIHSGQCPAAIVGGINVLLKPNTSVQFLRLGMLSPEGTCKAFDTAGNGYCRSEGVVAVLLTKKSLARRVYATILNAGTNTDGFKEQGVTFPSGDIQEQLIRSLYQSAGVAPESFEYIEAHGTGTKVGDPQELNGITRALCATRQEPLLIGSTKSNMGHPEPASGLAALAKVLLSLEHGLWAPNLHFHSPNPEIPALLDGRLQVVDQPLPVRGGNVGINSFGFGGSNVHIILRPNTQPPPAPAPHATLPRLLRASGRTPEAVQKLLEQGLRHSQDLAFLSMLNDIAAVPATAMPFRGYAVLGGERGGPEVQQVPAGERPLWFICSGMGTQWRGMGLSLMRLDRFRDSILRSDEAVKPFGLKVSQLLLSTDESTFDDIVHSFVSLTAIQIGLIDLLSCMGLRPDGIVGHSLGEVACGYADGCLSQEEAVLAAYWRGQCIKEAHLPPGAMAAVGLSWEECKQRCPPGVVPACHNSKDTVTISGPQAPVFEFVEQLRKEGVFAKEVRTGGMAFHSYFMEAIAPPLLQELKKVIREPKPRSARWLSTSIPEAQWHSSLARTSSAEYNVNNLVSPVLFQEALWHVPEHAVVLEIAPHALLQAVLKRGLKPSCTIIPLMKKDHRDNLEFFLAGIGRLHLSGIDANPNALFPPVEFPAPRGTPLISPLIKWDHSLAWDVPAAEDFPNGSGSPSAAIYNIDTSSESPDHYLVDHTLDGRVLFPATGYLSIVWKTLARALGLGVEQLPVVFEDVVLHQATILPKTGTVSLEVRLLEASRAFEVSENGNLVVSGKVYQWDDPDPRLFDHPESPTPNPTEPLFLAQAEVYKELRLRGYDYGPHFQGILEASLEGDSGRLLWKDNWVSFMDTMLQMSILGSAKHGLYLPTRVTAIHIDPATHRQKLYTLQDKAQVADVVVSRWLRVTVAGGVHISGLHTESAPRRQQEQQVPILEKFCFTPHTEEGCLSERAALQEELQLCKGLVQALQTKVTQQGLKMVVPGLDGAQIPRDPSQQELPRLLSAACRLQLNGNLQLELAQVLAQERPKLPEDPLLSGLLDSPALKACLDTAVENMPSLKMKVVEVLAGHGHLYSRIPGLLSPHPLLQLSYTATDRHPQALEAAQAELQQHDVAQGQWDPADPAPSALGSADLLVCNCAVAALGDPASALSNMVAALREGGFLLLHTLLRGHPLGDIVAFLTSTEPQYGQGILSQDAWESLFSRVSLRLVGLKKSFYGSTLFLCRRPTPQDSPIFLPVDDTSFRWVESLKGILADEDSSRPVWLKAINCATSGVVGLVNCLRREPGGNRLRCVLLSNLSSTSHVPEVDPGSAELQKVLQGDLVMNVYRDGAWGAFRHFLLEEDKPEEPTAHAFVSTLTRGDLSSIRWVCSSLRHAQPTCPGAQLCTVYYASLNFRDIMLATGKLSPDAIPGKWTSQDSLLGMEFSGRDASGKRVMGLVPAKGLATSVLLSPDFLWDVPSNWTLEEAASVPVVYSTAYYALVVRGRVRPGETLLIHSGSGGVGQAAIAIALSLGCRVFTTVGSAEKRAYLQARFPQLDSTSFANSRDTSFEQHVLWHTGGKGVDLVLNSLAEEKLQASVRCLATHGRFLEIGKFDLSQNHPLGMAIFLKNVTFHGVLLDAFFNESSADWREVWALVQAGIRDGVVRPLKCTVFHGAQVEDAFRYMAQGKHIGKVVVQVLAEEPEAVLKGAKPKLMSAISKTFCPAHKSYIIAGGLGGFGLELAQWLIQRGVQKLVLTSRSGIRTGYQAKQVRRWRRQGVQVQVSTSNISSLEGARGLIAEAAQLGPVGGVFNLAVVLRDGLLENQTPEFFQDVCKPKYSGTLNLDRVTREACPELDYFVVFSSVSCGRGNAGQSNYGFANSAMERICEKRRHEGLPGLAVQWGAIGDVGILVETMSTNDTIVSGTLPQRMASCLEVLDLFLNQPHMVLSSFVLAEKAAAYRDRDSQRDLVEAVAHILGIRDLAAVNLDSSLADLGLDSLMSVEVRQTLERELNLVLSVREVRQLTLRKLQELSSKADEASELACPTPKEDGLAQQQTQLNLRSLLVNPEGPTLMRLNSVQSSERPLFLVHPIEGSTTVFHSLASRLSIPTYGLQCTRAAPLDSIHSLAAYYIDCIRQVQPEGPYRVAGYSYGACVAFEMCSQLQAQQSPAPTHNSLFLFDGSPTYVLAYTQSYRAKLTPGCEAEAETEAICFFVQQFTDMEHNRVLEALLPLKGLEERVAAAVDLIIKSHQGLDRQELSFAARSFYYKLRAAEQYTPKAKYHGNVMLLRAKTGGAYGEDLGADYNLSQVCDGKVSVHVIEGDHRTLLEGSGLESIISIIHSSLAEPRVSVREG
row,Structure (SMILES),IC50
1,"O=C(C1CC1)N1CC[C@@H](Cn2c(-c3ccc(-c4ccc(F)cc4)cc3)nc3cccc(C(F)(F)F)c32)C1 [Example 117, 1-{[(3S)-1-(Cyclopropylcarbonyl)-3-pyrrolidinyl]methyl}-2-(4′-fluoro-4-biphenylyl)-7-(trifluoromethyl)-1H-benzimidazole]",1.45 µM
2,"CN1CCN(C(=O)c2ccc3nc(-c4ccc(-c5ccc6cc[nH]c6c5)cc4)n(C[C@@H]4CCN(C(=O)C5CC5)C4)c3c2)CC1 [Example 106, 1-{[(3S)-1-(Cyclopropylcarbonyl)-3-pyrrolidinyl]methyl}-2-[4-(1H-indol-6-yl)phenyl]-6-[(4-methyl-1-piperazinyl)carbonyl]-1H-benzimidazole]",0.055 µM
3,"Cc1ccc2c(c1)nc(-c1ccc(-c3ccc4[nH]ncc4c3)cc1)n2C[C@@H]1CCN(C(=O)C2CC2)C1 [Example 49, 5-[4-(1-{[(3S)-1-(Cyclopropylcarbonyl)-3-pyrrolidinyl]methyl}-5-methyl-1H-benzimidazol-2-yl)phenyl]-1H-indazole]",0.0269 µM
4,"O=C(C1CC1)N1CC[C@@H](Cn2c(-c3ccc(-c4ccc5[nH]ccc5c4)cc3)nc3cc(C(F)(F)F)ccc32)C1 [Example 62, 1-{[(3S)-1-(Cyclopropylcarbonyl)-3-pyrrolidinyl]methyl}-2-[4-(1H-indol-5-yl)phenyl]-5-(trifluoromethyl)-1H-benzimidazole]",0.0309 µM
5,"O=C(C1CC1)N1CC[C@@H](Cn2c(-c3ccc(-c4ccc5cc[nH]c5c4)cc3)nc3c(C(F)(F)F)cccc32)C1 [Example 24, 1-{[(3S)-1-(Cyclopropylcarbonyl)-3-pyrrolidinyl]methyl}-2-[4-(1H-indol-6-yl)phenyl]-4-(trifluoromethyl)-1H-benzimidazole]",0.049 µM
6,"COc1ccc2nc(-c3ccc(-c4ccc5cc[nH]c5c4)cc3)n(C[C@@H]3CCN(C(=O)C4CC4)C3)c2c1 [Example 66, 1-{[(3S)-1-(Cyclopropylcarbonyl)-3-pyrrolidinyl]methyl}-2-[4-(1H-indol-6-yl)phenyl]-6-(methyloxy)-1H-benzimidazole]",0.0219 µM
7,"CN1CCN(C(=O)c2ccc3nc(-c4ccc(-c5ccc6[nH]ccc6c5)cc4)n(C[C@@H]4CCN(C(=O)C5CC5)C4)c3c2)CC1 [Example 107, 1-{[(3S)-1-(Cyclopropylcarbonyl)-3-pyrrolidinyl]methyl}-2-[4-(1H-indol-5-yl)phenyl]-6-[(4-methyl-1-piperazinyl)carbonyl]-1H-benzimidazole]",0.01 µM

# Results, then the compound that gave them:
row,IC50,Structure (SMILES)
1,0.0501 µM,"Cc1ccc2nc(-c3ccc(-c4ccc5occc5c4)cc3)n(C[C@@H]3CCN(C(=O)C4CC4)C3)c2c1 [Example 83, 2-[4-(1-Benzofuran-5-yl)phenyl]-1-{[(3S)-1-(cyclopropylcarbonyl)-3-pyrrolidinyl]methyl}-6-(methyl)-1H-benzimidazole]"
2,0.055 µM,"O=C(C1CC1)N1CC[C@@H](Cn2c(-c3ccc(-c4ccc5ncsc5c4)cc3)nc3ccccc32)C1 [Example 4, 6-[4-(1-{[(3S)-1-(Cyclopropylcarbonyl)-3-pyrrolidinyl]methyl}-1H-benzimidazol-2-yl)phenyl]-1,3-benzothiazole]"
3,0.0437 µM,"O=C(C1CC1)N1CC[C@@H](Cn2c(-c3ccc(-c4ccc5cc[nH]c5c4)cc3)nc3ccc(C(F)(F)F)cc32)C1 [Example 88, 1-{[(3S)-1-(Cyclopropylcarbonyl)-3-pyrrolidinyl]methyl}-2-[4-(1H-indol-6-yl)phenyl]-6-(trifluoromethyl)-1H-benzimidazole]"
4,0.135 µM,"O=C(C1CC1)N1CC[C@@H](Cn2c(-c3ccc(-c4ccccc4)cc3)nc3c(Br)cccc32)C1 [Example 33, 2-(4-Biphenylyl)-4-bromo-1-{[(3S)-1-(cyclopropylcarbonyl)-3-pyrrolidinyl]methyl}-1H-benzimidazole]"

# From patent US20120208827A1, “BENZIMIDAZOLES AS FATTY ACID SYNTHASE INHIBITORS” (GlaxoSmithKline LLC, priority 2009, published 2012)
